The values that follow come from US9556229B2, “Modification of peptides using a bis(thioether)arylbridge approach” (priority 2012, dated 2017).

Starred links: 1 amine or outer side, 2 acyl side, 3 side chain; linkers in the order of their positions; H or OH if unused. Positions of bridges follow the written chain, without caps; N, C: chain ends. Non-standard residues stand in square brackets, D forms with d. Residues, ends and D or L forms follow the SMILES beside them. ξ: configuration not given here. *: point of attachment. Phe(F5) = N[C@@H](Cc1c(F)c(F)c(F)c(F)c1F)C(=O)O; X1 = O=C(Cc1ccc(CSCCCCN[*:1])cc1)[*:2]; 1Nal = N[C@@H](Cc1cccc2ccccc12)C(=O)O; mXylylene = c1cc(C[*:1])cc(C[*:2])c1; oXylylene = c1ccc(C[*:2])c(C[*:1])c1; Cha = N[C@@H](CC1CCCCC1)C(=O)O; Nicotinoyl = O=C(c1cccnc1)*; ξDisc = O=C(O)C1NCc2ccccc21; β3hP = O=C(O)C[C@@H]1CCCN1; Inp = O=C(O)C1CCNCC1

The first experiment has as its system HCT116/SCID. The experiment is described as follows: Mouse subcutaneous engraftment model (HCT116/SCID). The class given is in vivo.
Settings: not given
The text has this: Based on analysis of p53/MDM2 and PMI-N8A/MDM2 crystal structures we placed various combinations of (L)- and (D)Cys residues in specific positions of PMI sequence considering the importance of particular amino acids for peptide bioactivity (see, e.g., Tables 1 and 2. Particular combinations were in turn tAB-ed using selected bis-halogeno-aryl compounds (see, e.g., FIG. 1) that fit into spatial arrangements/dimensions available, based on computer aided molecular modeling. Since ^DPMI-a presumably lack cell permeating properties, in addition we engineered several analogues as a cell permeating compounds containing multiple Arg residues simultaneously employing combination of D- and unusual amino acids to further enhance stability and binding properties of the peptide. Analogues were subsequently tested in vitro using HCT116 colorectal cancer cells and PrestoBlue™ assay (Invitrogen). […] Selected analogues were also tested in vivo using mouse subcutaneous engraftment model (HCT116/SCID).
Consider `N=C(N)NCCC[C@@H](N)C(=O)N[C@@H](CCCNC(=N)N)C(=O)N[C@@H](Cc1c(F)c(F)c(F)c(F)c1F)C(=O)N[C@@H](CCCNC(=N)N)C(=O)N[C@@H]1CSCc2ccccc2CSC[C@@H](C(=O)N[C@H](CCCNC(=N)N)C(=O)N[C@@H](CC2CCCCC2)C(=O)N[C@@H](CCCNC(=N)N)C(=O)N2Cc3ccccc3C2C(N)=O)NC(=O)[C@H](Cc2cccc3ccccc23)NC(=O)[C@H](Cc2ccc(O)cc2)NC1=O` (stereo partly drawn) [ArB14Co, Arg-Arg-PhF-Arg-Cys-Tyr-Na1-Cys-Arg-Cha-Arg-DISC] (H-[dR]R[Phe(F5)]R[dC]Y[1Nal]C[dR][Cha]R[ξDisc]-NH2; linker 5-8 via oXylylene), for which the tumor growth delay is about 14.6 days.

A further experiment concerns HCT116 colorectal cancer cells.
Assay: not given
Settings: not given
For the compound `N=C(N)NCCC[C@@H](N)C(=O)N[C@@H](CCCNC(=N)N)C(=O)N[C@@H](Cc1c(F)c(F)c(F)c(F)c1F)C(=O)N[C@@H](CCCNC(=N)N)C(=O)N[C@@H]1CSCc2ccccc2CSC[C@@H](C(=O)N[C@H](CCCNC(=N)N)C(=O)N[C@@H](CC2CCCCC2)C(=O)N[C@@H](CCCNC(=N)N)C(=O)N2Cc3ccccc3C2C(N)=O)NC(=O)[C@H](Cc2cccc3ccccc23)NC(=O)[C@H](Cc2ccc(O)cc2)NC1=O` (stereo partly drawn) [ArB14Co, Arg-Arg-PhF-Arg-Cys-Tyr-Na1-Cys-Arg-Cha-Arg-DISC] (H-[dR]R[Phe(F5)]R[dC]Y[1Nal]C[dR][Cha]R[ξDisc]-NH2; linker 5-8 via oXylylene), the response was half-maximal at 11.2 ± 1.2 µM (EC50).

Turning to `CC(C)C[C@H](NC(=O)[C@H](CCCNC(=N)N)NC(=O)[C@H](CS)NC(=O)[C@H](Cc1c[nH]c2ccccc12)NC(=O)[C@H](Cc1ccc(O)cc1)NC(=O)[C@H](CCCNC(=N)N)NC(=O)[C@H](CS)NC(=O)[C@H](Cc1ccccc1)NC(=O)[C@H](CCCNC(=N)N)NC(=O)c1cccnc1)C(=O)N[C@@H](CCCNC(=N)N)C(=O)N1CCC[C@H]1C(N)=O` [ArB15F/GNicr] (Nicotinoyl-RFCRYWCRLRP-NH2), the concentration for a half-maximal effect (EC50) – broadly, the concentration giving half of the maximal effect – is 64.5 µM.

Compound `CC(C)C[C@H](NC(=O)[C@H](CCCNC(=N)N)NC(=O)[C@H](CS)NC(=O)[C@H](Cc1c[nH]c2ccccc12)NC(=O)[C@H](Cc1ccc(O)cc1)NC(=O)[C@H](CCCNC(=N)N)NC(=O)[C@H](CS)NC(=O)[C@H](Cc1ccccc1)NC(=O)[C@@H](N)CCCNC(=N)N)C(=O)N[C@@H](CCCNC(=N)N)C(=O)N1CCC[C@H]1C(N)=O` [ArB15F/Gr] (H-RFCRYWCRLRP-NH2; N-terminus assumed) registered an EC50 of over 250 µM.

For the compound `CC(C)C[C@H](NC(=O)[C@H](CCCNC(=N)N)NC(=O)[C@@H]1CSCc2ccccc2CSC[C@H](NC(=O)[C@H](Cc2ccccc2)NC(=O)[C@H](CCCNC(=N)N)NC(=O)c2cccnc2)C(=O)N[C@@H](CCCNC(=N)N)C(=O)N[C@@H](Cc2ccc(O)cc2)C(=O)N[C@@H](Cc2c[nH]c3ccccc23)C(=O)N1)C(=O)N[C@@H](CCCNC(=N)N)C(=O)N1CCC[C@H]1C(N)=O` [ArB15FNico] (Nicotinoyl-RFCRYWCRLRP-NH2; linker 3-7 via oXylylene), the EC50 was 189 µM.

In turn, `CC(C)C[C@H](NC(=O)[C@H](CCCNC(=N)N)NC(=O)[C@@H]1CSCc2ccccc2CSC[C@H](NC(=O)[C@H](Cc2ccccc2)NC(=O)[C@@H](N)CCCNC(=N)N)C(=O)N[C@@H](CCCNC(=N)N)C(=O)N[C@@H](Cc2ccc(O)cc2)C(=O)N[C@@H](Cc2c[nH]c3ccccc23)C(=O)N1)C(=O)N[C@@H](CCCNC(=N)N)C(=O)N1CCC[C@H]1C(N)=O` [ArB15Fo] (H-RFCRYWCRLRP-NH2; linker 3-7 via oXylylene; N-terminus assumed) yielded a 50% effective concentration (EC50) of 49.6 µM.

Turning to `CC(C)C[C@H](NC(=O)[C@H](CCCNC(=N)N)NC(=O)[C@@H]1CSCc2cccc(c2)CSC[C@H](NC(=O)[C@H](Cc2ccccc2)NC(=O)[C@H](CCCNC(=N)N)NC(=O)c2cccnc2)C(=O)N[C@@H](CCCNC(=N)N)C(=O)N[C@@H](Cc2ccc(O)cc2)C(=O)N[C@@H](Cc2c[nH]c3ccccc23)C(=O)N1)C(=O)N[C@@H](CCCNC(=N)N)C(=O)N1CCC[C@H]1C(N)=O` [ArB15GNicm] (Nicotinoyl-RFCRYWCRLRP-NH2; linker 3-7 via mXylylene), the EC50 turned out to be 126 µM.

In the case of `CC(C)C[C@H](NC(=O)[C@H](CCCNC(=N)N)NC(=O)[C@@H]1CSCc2cccc(c2)CSC[C@H](NC(=O)[C@H](Cc2ccccc2)NC(=O)[C@@H](N)CCCNC(=N)N)C(=O)N[C@@H](CCCNC(=N)N)C(=O)N[C@@H](Cc2ccc(O)cc2)C(=O)N[C@@H](Cc2c[nH]c3ccccc23)C(=O)N1)C(=O)N[C@@H](CCCNC(=N)N)C(=O)N1CCC[C@H]1C(N)=O` [ArB15Gm] (H-RFCRYWCRLRP-NH2; linker 3-7 via mXylylene; N-terminus assumed), the half-maximal effective concentration (EC50) stood at 52.2 µM.

Turning to `C[C@@H]1NC(=O)[C@H](CCCNC(=N)N)NC(=O)C[C@@H]2CCCN2C(=O)Cc2ccc(cc2)CSCCCCNC(=O)C2CCN(CC2)C(=O)[C@@H](CCCCN)NC(=O)[C@H](CCCNC(=N)N)NC(=O)[C@@H](Cc2c[nH]c3ccccc23)NC(=O)[C@H](C)NC(=O)[C@H](CCCNC(=N)N)NC(=O)C[C@@H]2CCCN2C(=O)Cc2ccc(cc2)CSCCCCNC(=O)C2CCN(CC2)C(=O)[C@@H](CCCCN)NC(=O)[C@H](CCCNC(=N)N)NC(=O)[C@@H](Cc2c[nH]c3ccccc23)NC1=O` [ArBMim, [-Bmpa-bhPro-Arg-Ala-Trp-Arg-Lys-Inp-CH2CH2CH2CH2-S-]2] (cyclo([Inp][X1][β3hP]RA[dW]R[dK][Inp][X1][β3hP]RA[dW]R[dK])), the EC50 came out at 23.4 ± 2.1 µM.

Staying with this experiment, now noted: read-out: EC50 [μM] HCT-116; HCT116 colorectal cancer cells, PrestoBlue assay; NA = not active.
Take `CC(C)C[C@H](NC(=O)[C@H]1CSCc2cccc(c2)Cc2cccc(c2)CSC[C@H](NC(=O)[C@H](C)NC(=O)[C@H](Cc2ccccc2)NC(=O)[C@H](CO)NC(=O)[C@@H](N)[C@@H](C)O)C(=O)N[C@@H](Cc2ccc(O)cc2)C(=O)N[C@@H](Cc2c[nH]c3ccccc23)C(=O)NCC(=O)N1)C(=O)N[C@@H](CO)C(=O)N1CCC[C@H]1C(N)=O` [ArB15Eb]: the concentration giving a half-maximal response (EC50) came out at 163 µM.
